Source: US11400059B2, “Treatment of pain and/or pain related symptoms associated with dysmenorrhea” (ALYRA BIOTECH PTY LTD, priority 2017, dated 2022)
“Also recorded” adds a separate entry of the source.

Legend:
[1] = tested on: mice with intrauterine LPS; experiment: Facial Grimace Scale 24 hours after final LPS stimulation; type: in vivo, mouse (Balb/C); conditions: intrauterine LPS vs saline, 24 hours after final LPS stimulation
Method: (§1) Group 1 included twelve mice with 20 μl endotoxin-free saline introduced to the uterus on the first day of estrus and the subsequent day over 3 consecutive estrous cycles. Group 2 included twelve mice with LPS (100 μg/kg) instilled in the uterus on the first day of estrus and saline injected on the subsequent day over 3 consecutive estrous cycles. Group 3 included twelve mice with LPS (100 μg/kg) mixed with amitriptyline (20 μl of a 100 μM solution, equivalent to 28 μg/kg) instilled in the uterus on the first day of estrus, and amitriptyline alone instilled on the subsequent day over 3 consecutive estrous cycles. Group 4 included 14 mice with LPS (100 μg/kg) mixed with TAK-242 (20 μl of a 100 μM solution, equivalent to 36 μg/kg) instilled on the first day of estrus and TAK-242 alone instilled on the subsequent day over 3 consecutive estrous cycles.
24 hours following the final LPS stimulation mice were subjected to assessment for the presence or absence of pain. This was assessed using the following tests:
Facial Grimace Scale: Photos of mice in their home cage will be taken, to score their facial Grimace and this was quantified and compared between groups. For further information see: http://www.nature.com/nmeth/journal/v7/n6/full/nmeth.1455.html.

[2] = tested on: spinal microglia (Iba1) in the dorsal horn of the spinal cord; experiment: Spinal microglial activation (Iba1 immunofluorescence) after intrauterine LPS; type: in vivo, mouse (Balb/C); conditions: 3 estrous cycles
Method: as §1
(§2) The investigation involved the instillation of 20 ul of an endotoxin-free 0.9% saline solution into the uterus of all animals on the first day of estrus and the subsequent day during 3 consecutive estrous cycles. Additional agents added to the saline were included according to the groups outlined below. Where LPS is administered, this was done on only 1 day per estrous cycle.
(§3) Where amitriptyline or TAK-242 was administered, this is on both the first day of estrus and the subsequent day.
(§4) The spinal cord was assessed using immunohistochemistry techniques across levels T10, T11, T12, T13, L1, L2, L3, L4, L5, L6, S1 and S2 for Groups 1 and 2, where T represents the thoracic segment of the spinal cord, L represents the lumbar segment of the spinal cord and S represents the sacral segment of the spinal cord.
as §4, with “levels” for “levels T10, T11,”, “L6, S” for “L6, S1”, “Groups 3” for “Groups 1”, “and 4,” for “and 2,”, “cord. […]” for “cord.”

[3] = tested on: spinal astrocytes (GFAP) in the dorsal horn of the spinal cord; experiment: Spinal astrocyte activation (GFAP immunofluorescence) after intrauterine LPS; type: in vivo, mouse (Balb/C); conditions: 3 estrous cycles
Method: as §1, §2, §3, §4
as §4, with “levels” for “levels T10, T11,”, “L6, S” for “L6, S1”, “Groups 3” for “Groups 1”, “and 4,” for “and 2,”, “cord. […]” for “cord.”

[4] = tested on: spinal glial cells in the dorsal horn of the spinal cord; experiment: Spinal glial activation (astrocytes and microglia) after intrauterine LPS, overall statements; type: in vivo, mouse (Balb/C)
Excerpt: In the model, we investigated whether intrauterine LPS administration would cause an activation of the innate immune system in the uterus, replicating the inflammation often seen in dysmenorrhea, with possible association with pain. As inflammation is intrinsically linked with pain, we investigated whether activation of the innate immune system in the uterus would induce activation of spinal glial cells (central nervous system immune cells) in the dorsal horn of the spinal cord. Spinal glial cells include astrocytes and microglia. Activation of spinal glial cells was assessed using immunoflourescent staining with GFAP (astrocytes) or Iba1 (microglia). We then investigated if spinal glial activation is attenuated by the innate immune system blocking drugs amitriptyline and TAK-242.
as §1
Determination of spinal glial response was then assessed using immunofluorescence to confirm the validity of the experimental model.
Determination of the ability of TLR4 antagonists to block the activation of spinal astrocytes and microglia induced by intra-uterine instillation of LPS was assessed.
An assessment of glial activation was made using immunochemistry techniques including Ionized calcium binding adaptor molecule 1 (Iba1) expression and glial fibrillary-associated protein (GFAP) variability in the dorsal horn. Iba1 expression is a marker for microglial activation, and GFAP is a marker for astrocyte activation. The spinal cord levels chosen are consistent with the level of spinal afferent neurons associated with the pelvis, including the uterus in the mouse.

hNOD1 = molecular target: T1, hNOD1 (Homo sapiens, UniProt Q9Y239); experiment: Human TLR/NLR agonist screening, NF-κB SEAP reporter in HEK293 cells; type: cell-based; conditions: agonist mode, Control+ = C12-iE-DAP 1 μg/mL
T1 construct: expressed in transfected cells; host or cells: HEK293
T1 sequence (Q9Y239 1-953): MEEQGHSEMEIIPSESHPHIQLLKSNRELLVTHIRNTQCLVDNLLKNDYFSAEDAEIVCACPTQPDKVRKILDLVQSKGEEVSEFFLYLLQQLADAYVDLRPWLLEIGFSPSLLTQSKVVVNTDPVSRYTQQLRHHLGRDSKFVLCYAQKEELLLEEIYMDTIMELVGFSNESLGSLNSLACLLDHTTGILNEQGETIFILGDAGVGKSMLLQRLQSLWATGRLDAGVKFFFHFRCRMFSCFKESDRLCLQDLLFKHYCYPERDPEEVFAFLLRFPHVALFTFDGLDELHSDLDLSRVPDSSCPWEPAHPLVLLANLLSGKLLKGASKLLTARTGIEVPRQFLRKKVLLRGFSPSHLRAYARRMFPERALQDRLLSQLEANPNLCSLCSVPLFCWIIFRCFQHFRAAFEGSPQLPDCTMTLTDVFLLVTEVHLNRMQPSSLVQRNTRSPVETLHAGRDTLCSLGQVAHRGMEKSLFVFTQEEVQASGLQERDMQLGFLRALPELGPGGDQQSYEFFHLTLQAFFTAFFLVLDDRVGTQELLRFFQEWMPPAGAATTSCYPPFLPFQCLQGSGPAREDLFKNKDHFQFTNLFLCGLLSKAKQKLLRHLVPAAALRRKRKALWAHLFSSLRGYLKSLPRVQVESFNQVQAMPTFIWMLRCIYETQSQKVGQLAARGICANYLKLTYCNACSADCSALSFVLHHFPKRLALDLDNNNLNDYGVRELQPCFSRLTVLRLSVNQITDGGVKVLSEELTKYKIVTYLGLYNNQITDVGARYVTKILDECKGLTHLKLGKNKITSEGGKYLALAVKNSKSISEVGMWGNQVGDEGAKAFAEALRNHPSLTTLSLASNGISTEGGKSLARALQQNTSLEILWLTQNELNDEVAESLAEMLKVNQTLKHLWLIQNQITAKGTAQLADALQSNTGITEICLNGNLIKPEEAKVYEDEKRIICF
Method: (§5) Toll-Like Receptor (TLR), NOD-Like Receptor (NLR) and C-Type Lectin Receptor (CLR) stimulation were tested by assessing NF-κB activation in HEK293 cells expressing a given TLR, NLR or CLR. The activity of the test articles was tested at one concentration and compared to control ligands. These steps were performed in triplicate.
hNOD1: C12-iE-DAP at 1 μg/mL Antagonist: 100 ng/mL.
(§6) In a 96-well plate (200 μL total volume) containing the appropriate cells (50,000-75,000 cells/well), 20 μL of the test article or the positive control ligand was added to the wells. For the antagonist assay, the test article was incubated with the cells, at 37° C. with 5% CO2, for 30 minutes prior to the addition of the positive control ligand to the wells. The media added to the wells was designed for the detection of NF-κB induced SEAP expression. After a 16-24 hr incubation the optical density (OD) was read at 650 nm on a Molecular Devices SpectraMax 340PC absorbance detector.
(§7) The fold induction (ratio of average induced value to average non-induced value) results were as follows: […]

hTLR9 = molecular target: T2, hTLR9 (Homo sapiens, UniProt Q9NR96); experiment: as above; type: cell-based; conditions: agonist mode, Control+ = CpG ODN 2006 1 μg/mL
T2 construct: expressed in transfected cells; host or cells: HEK293
T2 sequence (Q9NR96 26-1032): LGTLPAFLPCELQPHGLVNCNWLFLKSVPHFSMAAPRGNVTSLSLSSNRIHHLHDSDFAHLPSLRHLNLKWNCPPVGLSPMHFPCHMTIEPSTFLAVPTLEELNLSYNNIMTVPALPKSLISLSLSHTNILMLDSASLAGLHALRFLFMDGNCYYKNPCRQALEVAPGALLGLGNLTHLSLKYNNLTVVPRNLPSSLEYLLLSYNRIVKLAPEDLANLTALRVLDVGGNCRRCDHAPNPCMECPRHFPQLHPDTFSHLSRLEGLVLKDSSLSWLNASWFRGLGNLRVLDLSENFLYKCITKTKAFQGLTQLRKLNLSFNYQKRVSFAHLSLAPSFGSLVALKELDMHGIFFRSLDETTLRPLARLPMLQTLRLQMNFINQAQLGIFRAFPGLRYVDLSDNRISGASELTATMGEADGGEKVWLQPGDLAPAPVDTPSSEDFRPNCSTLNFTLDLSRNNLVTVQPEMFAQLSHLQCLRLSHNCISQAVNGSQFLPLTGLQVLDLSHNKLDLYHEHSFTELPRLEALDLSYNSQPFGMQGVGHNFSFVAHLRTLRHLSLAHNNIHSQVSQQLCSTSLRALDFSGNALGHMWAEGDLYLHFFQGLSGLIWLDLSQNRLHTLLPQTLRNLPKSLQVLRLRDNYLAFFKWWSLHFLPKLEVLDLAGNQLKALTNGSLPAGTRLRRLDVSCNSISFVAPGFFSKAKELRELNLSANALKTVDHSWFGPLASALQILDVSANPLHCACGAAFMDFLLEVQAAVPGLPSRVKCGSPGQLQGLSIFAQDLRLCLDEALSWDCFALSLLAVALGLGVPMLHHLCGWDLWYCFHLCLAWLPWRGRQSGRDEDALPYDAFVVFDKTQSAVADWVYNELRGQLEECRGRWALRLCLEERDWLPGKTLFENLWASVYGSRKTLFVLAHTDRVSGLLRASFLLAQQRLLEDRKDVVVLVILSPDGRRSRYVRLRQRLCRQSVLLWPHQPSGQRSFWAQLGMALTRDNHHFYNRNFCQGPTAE
Method: as §5
hTLR9: CpG ODN 2006 at 1 μg/mL Antagonist: 500 ng/mL.
as §6, §7

hTLR5 = molecular target: T3, hTLR5 (Homo sapiens, UniProt O60602); experiment: as above; type: cell-based; conditions: agonist mode, Control+ = S. typhimurium flagellin 100 ng/mL
T3 construct: expressed in transfected cells; host or cells: HEK293
Method: as §5
hTLR5: S. typhimurium flagellin at 100 ng/mL Antagonist: 50 ng/mL.
as §6, §7

[5] = intrauterine, mixed with LPS 100 μg/kg on first day of estrus and alone the subsequent day, amitriptyline 28 μg/kg, TAK-242 36 μg/kg, vs LPS

T3 sequence (O60602 21-858): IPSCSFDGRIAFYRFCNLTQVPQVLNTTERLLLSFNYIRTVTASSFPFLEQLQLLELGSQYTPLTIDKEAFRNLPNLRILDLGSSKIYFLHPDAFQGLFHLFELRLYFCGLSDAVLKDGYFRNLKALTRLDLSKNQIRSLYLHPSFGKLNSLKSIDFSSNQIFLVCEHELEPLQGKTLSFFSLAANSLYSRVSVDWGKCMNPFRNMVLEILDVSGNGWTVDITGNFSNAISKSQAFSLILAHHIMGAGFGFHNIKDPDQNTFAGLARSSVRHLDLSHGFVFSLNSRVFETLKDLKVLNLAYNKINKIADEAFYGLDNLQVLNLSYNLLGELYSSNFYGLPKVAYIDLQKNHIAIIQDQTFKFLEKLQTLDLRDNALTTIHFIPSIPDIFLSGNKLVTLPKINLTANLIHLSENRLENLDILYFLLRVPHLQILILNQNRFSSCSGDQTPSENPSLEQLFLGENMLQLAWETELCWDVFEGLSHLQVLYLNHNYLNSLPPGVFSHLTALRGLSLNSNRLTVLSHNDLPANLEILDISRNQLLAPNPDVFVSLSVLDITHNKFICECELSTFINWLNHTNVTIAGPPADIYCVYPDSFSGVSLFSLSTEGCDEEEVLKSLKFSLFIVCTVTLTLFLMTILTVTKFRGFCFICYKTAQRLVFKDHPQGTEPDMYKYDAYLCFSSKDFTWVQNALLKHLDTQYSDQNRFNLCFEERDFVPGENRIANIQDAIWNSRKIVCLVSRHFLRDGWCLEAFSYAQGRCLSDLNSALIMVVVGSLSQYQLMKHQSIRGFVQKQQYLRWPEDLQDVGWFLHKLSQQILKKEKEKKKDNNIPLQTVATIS

In the case of lipopolysaccharide [LPS], the “presentation of Grimace behaviours” value [1] is reported as “significant increase in the presentation of Grimace behaviours”, the Iba1 microglial staining ([2]; intrauterine LPS 100 μg/kg once per cycle, vs saline) is reported as “localised increase in Iba1 microglial staining” and the GFAP astrocyte staining ([3]; intrauterine LPS 100 μg/kg once per cycle, vs saline controls) is reported as “increase in GFAP astrocyte staining through widespread levels of the spinal cord; also recorded: substantial increase in GFAP astrocyte staining”. The “activation of spinal glial cells (astrocytes and microglia)” value ([4]; intra-uterine LPS) was “induced activation of spinal astrocytes and microglia; also recorded: activate spinal glial cells”.

With `CCOC(=O)C1=CCCC[C@H]1S(=O)(=O)Nc1ccc(F)cc1Cl` [TAK-242] the “microglial reactivity (Iba1 staining), impact of intrauterine LPS at multiple levels of the spinal cord” value [2, 5] was “reduced microglia reactivity to basal levels”, the “astrocytic reactivity (GFAP staining), impact of intrauterine LPS at multiple levels of the spinal cord” value [3, 5] was “reduced astrocytic reactivity to below basal levels” and the “spinal glial activation induced by intrauterine LPS” value ([4]; intrauterine co-administration with LPS) was “prevented; also recorded: block spinal glial activation”. For the same molecule, the “dose effective at reducing spinal glial activation” value ([4]; mouse model, intrauterine administration) was 0.036 mg/kg.

`CCCCCCCCCCCC(=O)N[C@H](CCC(=O)NC(CCCC(N)C(=O)O)C(=O)O)C(=O)O` (some centres unmarked) [C12-iE-DAP] was tested, and the “Fold induction (ratio of average induced value to average non-induced value)” value (hNOD1) was 20.

CpG ODN 2006 was tested, and the “Fold induction (ratio of average induced value to average non-induced value)” value (hTLR9) was 18.

B1: S. typhimurium flagellin: hTLR5 control ligand (protein, UniProt P06179 2-495, looked up)
Flagellin: AQVINTNSLSLLTQNNLNKSQSALGTAIERLSSGLRINSAKDDAAGQAIANRFTANIKGLTQASRNANDGISIAQTTEGALNEINNNLQRVRELAVQSANSTNSQSDLDSIQAEITQRLNEIDRVSGQTQFNGVKVLAQDNTLTIQVGANDGETIDIDLKQINSQTLGLDTLNVQQKYKVSDTAATVTGYADTTIALDNSTFKASATGLGGTDQKIDGDLKFDDTTGKYYAKVTVTGGTGKDGYYEVSVDKTNGEVTLAGGATSPLTGGLPATATEDVKNVQVANADLTEAKAALTAAGVTGTASVVKMSYTDNNGKTIDGGLAVKVGDDYYSATQNKDGSISINTTKYTADDGTSKTALNKLGGADGKTEVVSIGGKTYAASKAEGHNFKAQPDLAEAAATTTENPLQKIDAALAQVDTLRSDLGAVQNRFNSAITNLGNTVNNLTSARSRIEDSDYATEVSNMSRAQILQQAGTSVLAQANQVPQNVLSLLR
In the case of B1, the “Fold induction (ratio of average induced value to average non-induced value)” value (hTLR5) is reported as 18.
